Assay results published in patent publication US6221865A, “Inhibitors of protein isoprenyl transferases” (priority 1998, dated 2001).
Counter-ions that a name gives are not always drawn.

Target: T1, protein farnesyltransferase (Rattus norvegicus, UniProt Q02293+Q04631)
T1 construct: The enzyme is purified according to Reiss, Y., et al., Cell, 62: 81-88 (1990), utilizing steps one through three; from tissue; host or cells: rat brain
Experiment: Inhibition of farnesyltransferase (scintillation proximity assay, rat brain enzyme, biotin-K Ras B fragment substrate)
Type: biochemical
Details: for % inhibition of farnesyltransferase at 1 × 10^-7 M: 1 × 10^-7 M (Table 3); for % inhibition of farnesyltransferase at 1 × 10^-8 M: 1 × 10^-8 M (Table 4)
Outline: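 Enzyme from rat brain, partly purified (steps one to three), assayed by SPA kit using 0.1 mM final biotin-K Ras B peptide as prenyl acceptor rather than biotin-lamin. Activity given as percent inhibition.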

T1 sequence (Q02293 whole entry, one chain of several): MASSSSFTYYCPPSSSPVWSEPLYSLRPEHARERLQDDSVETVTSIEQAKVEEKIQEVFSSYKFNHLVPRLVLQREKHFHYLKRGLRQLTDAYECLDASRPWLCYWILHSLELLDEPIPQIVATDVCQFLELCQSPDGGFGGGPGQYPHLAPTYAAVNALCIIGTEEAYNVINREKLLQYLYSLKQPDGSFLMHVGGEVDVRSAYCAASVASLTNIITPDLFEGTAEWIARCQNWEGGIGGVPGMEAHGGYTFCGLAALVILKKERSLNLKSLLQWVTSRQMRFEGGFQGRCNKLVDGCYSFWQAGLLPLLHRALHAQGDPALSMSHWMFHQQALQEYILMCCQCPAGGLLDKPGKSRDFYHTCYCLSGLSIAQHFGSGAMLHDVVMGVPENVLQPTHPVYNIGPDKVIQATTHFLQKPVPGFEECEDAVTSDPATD

% inhibition of farnesyltransferase at 1 × 10^-6 M (1 × 10^-6 M (Table 2)) [%] | SMILES | % inhibition of farnesyltransferase at 1 × 10^-7 M [%] | other results
99 | CSCC[C@H](NC(=O)c1ccc(CNC(CC2CCCCC2)C(O)C(O)CC(C)C)cc1-c1ccccc1C)C(=O)O (some centres unmarked) [Example 528] |  | 
94 | CSCC[C@H](NC(=O)c1ccc(COCc2ccoc2)cc1-c1ccccc1C)C(=O)O [Example 530] |  | 
 | CSCC[C@H](NC(=O)c1ccc(COCCc2ccco2)cc1-c1ccccc1C)C(=O)[O-].[Li+] [Example 531] | 74 | 
 | CSCC[C@H](NC(=O)c1ccc(COCc2ccc(C)o2)cc1-c1ccccc1C)C(=O)O [Example 532] | 88 | 
 | CSCC[C@H](NC(=O)c1ccc(COCc2cc3ccccc3o2)cc1-c1ccccc1C)C(=O)[O-].[Li+] [Example 533] | 91 | 
 | CSCC[C@H](NC(=O)c1ccc(COC(Cc2ccccc2)c2ccco2)cc1-c1ccccc1C)C(=O)[O-].[Li+] (some centres unmarked) [Example 534] | 84 | 
 | CSCC[C@H](NC(=O)c1ccc(COCCc2ccc(-c3ccc(F)cc3)o2)cc1-c1ccccc1C)C(=O)[O-].[Li+] [Example 535] | 89 | 
 | CSCC[C@H](NC(=O)c1ccc(COCCc2ccc(-c3ccc(Cl)cc3)o2)cc1-c1ccccc1C)C(=O)[O-].[Li+] [Example 536] | 79 | 
 | CSCC[C@H](NC(=O)c1ccc(COCc2cncs2)cc1-c1ccccc1C)C(=O)[O-].[Li+] [Example 539] | 89 | 
40 | CSCC[C@H](NC(=O)c1ccc(NC(=O)Cc2ccccc2)cc1-c1ccccc1C)C(=O)O [Example 540] |  | 
37 | CSCC[C@H](NC(=O)c1ccc(NC(=O)Cc2ccc(C)cc2)cc1-c1ccccc1C)C(=O)O [Example 541] |  | 
67 | COc1ccc(CC(=O)Nc2ccc(C(=O)N[C@@H](CCSC)C(=O)O)c(-c3ccccc3C)c2)cc1 [Example 542] |  | 
35 | COc1ccccc1CCC(=O)Nc1ccc(C(=O)N[C@@H](CCSC)C(=O)O)c(-c2ccccc2C)c1 [Example 544] |  | 
88 | CSCC[C@H](NC(=O)c1ccc(CS[C@H](CO)Cc2ccccc2)cc1-c1ccccc1)C(=O)O [Example 545] |  | 
97 | CSCC[C@H](NC(=O)c1ccc(OC/C=C(\C)CCC=C(C)C)cc1-c1ccccc1C)C(=O)O [Example 546] |  | 
91 | CSCC[C@H](NC(=O)c1ccc(OC/C=C(\C)CC/C=C(\C)CCC=C(C)C)cc1-c1ccccc1C)C(=O)O [Example 547] |  | 
 | CSCC[C@H](NC(=O)c1ccc(CSc2ccc3ccccc3c2)cc1-c1ccccc1C)C(=O)O [Example 551] | 93 | 
92 | CSCC[C@H](NC(=O)c1ccc(OCCC23CC4CC(CC(C4)C2)C3)cc1-c1ccccc1C)C(=O)O [Example 553] |  | 
85 | CSCC[C@H](NC(=O)c1ccc(CS(=O)(=O)Cc2ccccc2)cc1-c1ccccc1C)C(=O)O [Example 555] |  | 
 | CSCC[C@H](NC(=O)c1ccc(CSCC2CCCCC2)cc1-c1ccccc1C)C(=O)[O-].[Li+] [Example 559] | 96 | 
91 | CSCC[C@H](NC(=O)c1ccc(OC/C=C/c2ccccc2)cc1-c1ccccc1C)C(=O)O [Example 560] |  | 
91 | CSCC[C@H](NC(=O)c1ccc(OCCOc2ccccc2)cc1-c1ccccc1C)C(=O)O [Example 561] |  | 
 | CSCC[C@H](NC(=O)c1ccc(CSCCc2ccccc2)cc1-c1ccccc1C)C(=O)[O-].[Li+] [Example 562] | 95 | 
98 | CSCC[C@H](NC(=O)c1ccc(OCCCC2CCCCC2)cc1-c1ccccc1C)C(=O)O [Example 564] |  | 
98 | CSCC[C@H](NC(=O)c1ccc(OCCCOc2ccccc2)cc1-c1ccccc1C)C(=O)O [Example 566] |  | 

% inhibition of farnesyltransferase at 1 × 10^-6 M (1 × 10^-6 M (Table 2)) [%] | SMILES | % inhibition of farnesyltransferase at 1 × 10^-7 M [%] | other results
93 | CSCC[C@H](NC(=O)c1ccc(OCCCCOc2ccccc2)cc1-c1ccccc1C)C(=O)O [Example 568] |  | 
 | CSCC[C@H](NC(=O)c1ccc(COCc2ccccc2)cc1-c1ccccc1C)C(=O)[O-].[Li+] [Example 571] | 88 | 
 | CSCC[C@H](NC(=O)c1ccc(CC(Cc2ccccc2)c2ccccc2)cc1-c1ccccc1C)C(=O)O (some centres unmarked) [Example 572, N-[4-(2,3-diphenylpropan-1-yl)-2-(2-methylphenyl)benzoyl]methionine lithium salt] |  | inhibition at 1 µM (read-out: % inhibition of farnesyltransferase at 1 × 10^-6 M, 1 × 10^-6 M (Table 2)): 91%
 | CSCC[C@H](NC(=O)c1ccc(COc2ccc3ccccc3c2)cc1-c1ccccc1C)C(=O)O [Example 573] | 72 | 
 | CSCC[C@H](NC(=O)c1ccc(COc2cccc3ccccc23)cc1-c1ccccc1C)C(=O)O [Example 574] | 81 | 
70 | CSCC[C@H](NC(=O)c1ccc(COCc2ccccc2)cc1-c1ccccc1)C(=O)O [Example 575] |  | 
88 | Cc1ccccc1-c1cc(COCc2ccccc2)ccc1C(=O)N[C@@H](CCS(C)(=O)=O)C(=O)O [Example 576] |  | 
 | CSCC[C@H](NC(=O)c1ccc(COCc2cccc(C)c2)cc1-c1ccccc1C)C(=O)[O-].[Li+] [Example 578] | 90 | 
 | CSCC[C@H](NC(=O)c1ccc(COCc2ccc(C)cc2)cc1-c1ccccc1C)C(=O)[O-].[Li+] [Example 579] | 92 | 
 | CSCC[C@H](NC(=O)c1ccc(COCc2ccccc2)cc1-c1ccccc1C)C(=O)NS(=O)(=O)c1ccccc1 [Example 580] | 90 | 
99 | CSCC[C@H](NC(=O)c1ccc(COCc2ccccc2)cc1-c1ccccc1C)C(=O)NS(=O)(=O)c1ccc(C)cc1 [Example 582] |  | 
 | CSCC[C@H](NC(=O)c1ccc(COCc2cccc3ccccc23)cc1-c1ccccc1C)C(=O)[O-].[Li+] [Example 584] | 96 | 
 | CSCC[C@H](NC(=O)c1ccc(COCC2CCCCC2)cc1-c1ccccc1C)C(=O)[O-].[Li+] [Example 585] | 96 | 
 | CSCC[C@H](NC(=O)c1ccc(CSCc2ccccc2)cc1-c1ccccc1C)C(=O)NS(=O)(=O)c1ccc(C)cc1 [Example 586] |  | % inhibition of farnesyltransferase at 1 × 10^-8 M: 90%
 | CSCC[C@H](NC(=O)c1ccc(COCCc2ccccc2Cl)cc1-c1ccccc1C)C(=O)[O-].[Li+] [Example 588] |  | % inhibition of farnesyltransferase at 1 × 10^-8 M: 68%
 | COc1ccccc1CCOCc1ccc(C(=O)N[C@@H](CCSC)C(=O)O)c(-c2ccccc2C)c1 [Example 589] | 91 | 
 | CSCC[C@H](NC(=O)c1ccc(COCCc2ccc(Cl)cc2)cc1-c1ccccc1C)C(=O)[O-].[Li+] [Example 590] | 95 | 
 | CSCC[C@H](NC(=O)c1ccc(COCCc2ccc(Cl)cc2Cl)cc1-c1ccccc1C)C(=O)[O-].[Li+] [Example 591] |  | % inhibition of farnesyltransferase at 1 × 10^-8 M: 82%
 | CSCC[C@H](NC(=O)c1ccc(COCCc2cccc3ccccc23)cc1-c1ccccc1C)C(=O)[O-].[Li+] [Example 592] | 93 | 
 | CSCC[C@H](NC(=O)c1ccc(COCCc2ccc3ccccc3c2)cc1-c1ccccc1C)C(=O)[O-].[Li+] [Example 593] | 86 | 
 | CSCC[C@H](NC(=O)c1ccc(COCCC2CCCCC2)cc1-c1ccccc1C)C(=O)[O-].[Li+] [Example 594] | 95 | 
 | CSCC[C@@H](C(=O)[O-])N(C)C(=O)c1ccc(COCCCC2CCCCC2)cc1-c1ccccc1C.[Li+] [Example 597] | 75 | 
 | CSCC[C@H](NC(=O)c1ccc(COCCCC23CC4CC(CC(C4)C2)C3)cc1-c1ccccc1C)C(=O)[O-].[Li+] [Example 599] |  | % inhibition of farnesyltransferase at 1 × 10^-8 M: 86%
 | CSCC[C@H](NC(=O)c1ccc(COCCCCC2CCCCC2)cc1-c1ccccc1C)C(=O)O [Example 600] | 93 | 

SMILES | % inhibition of farnesyltransferase at 1 × 10^-6 M (1 × 10^-6 M (Table 2)) [%] | % inhibition of farnesyltransferase at 1 × 10^-7 M [%] | other results
CSCC[C@H](NC(=O)c1ccc(CSC2CCCCC2)cc1-c1ccccc1C)C(=O)[O-].[Li+] [Example 550] | 96 |  | 
CSCC[C@H](NC(=O)c1ccc(OCCC2CCCCC2)cc1-c1ccccc1C)C(=O)[O-].[Li+] [Example 552] | 88 |  | 
CSCC[C@H](NC(=O)c1ccc(CSCc2ccccc2)cc1-c1ccccc1C)C(=O)[O-].[Li+] [Example 554] | 96 |  | 
CSCC[C@H](NC(=O)c1ccc(CSCc2ccc(C)cc2)cc1-c1ccccc1C)C(=O)[O-].[Li+] [Example 556] | 99 |  | 
CSCC[C@H](NC(=O)c1ccc(CSCc2ccccc2C)cc1-c1ccccc1C)C(=O)[O-].[Li+] [Example 557] | 93 |  | 
CSCC[C@H](NC(=O)c1ccc(OCCOC2CCCCC2)cc1-c1ccccc1C)C(=O)[O-].[Li+] [Example 565] | 94 |  | 
CSCC[C@H](NC(=O)c1ccc(COCc2ccccc2C)cc1-c1ccccc1C)C(=O)[O-].[Li+] [Example 577] | 94 |  | 
CSCC[C@H](NC(=O)c1ccc(COCc2ccc3ccccc3c2)cc1-c1ccccc1C)C(=O)[O-].[Li+] [Example 583] | 98 |  | 
CSCC[C@H](NC(=O)c1ccc(COCCc2ccccc2)cc1-c1ccccc1C)C(=O)[O-].[Li+] [Example 587] | 97 |  | 
CSCC[C@H](NC(=O)c1ccc(COCCCc2ccccc2)cc1-c1ccccc1C)C(=O)[O-].[Li+] [Example 595] | 97 |  | 
